From patent publication US8008354B2, “Death receptor sensitizing compounds and methods of use therefor” (Burnham Institute for Medical Research, priority 2006, dated 2011)

Tested on: PPC-1 cells
Assay: MTS viability of adherent PPC-1 cells with or without CH-11, thirty hours
Format: cell-based, human
Settings: CH-11 100 ng/mL
Description: FIG. 13. Small molecule down-regulation of FLIP sensitizes prostate cancer cells to anoikis. (A) PPC-1 cells were seeded overnight in adherent conditions and then treated with increasing concentrations of 5809354 for 16 hours. After incubation, cells were harvested. Total cellular RNA was extracted and mRNA levels of the long isoform of FLIP (FLIPL), the short isoform of FLIP (FLIPS), or rRNA levels of 18S were detected by real-time RT-PCR. Data were normalized using the ΔΔCT method and expressed as the mean±SEM percent of […] expression relative to untreated controls. (B) PPC-1 cells were cultured and treated as in panel A. Total cellular protein was isolated and analyzed by SDS-PAGE immunoblotting using anti-FLIP and anti-Actin antibodies. […] Thirty hours after incubation, cell viability was determined using the MTS assay. […] After incubation, apoptosis was measured by flow cytometry to detect cell surface annexin V expression and PI. […] (E) Cells were harvested, fixed, stained with DAPI, and nuclear morphology analyzed by fluorescence microscopy. […] One week later, cells were stained with methylene blue and the number of colonies counted. […]
Cell viability apoptosis, colony formation, and caspase activation assays. Cell viability was assessed using the MTS reduction assay (Promega, Madison, Wis., USA) according to the manufacturer's protocols and as described in Schimmer et al. (2006). […]

4-(4-chloro-2-methylphenoxy)-N-hydroxybutanamide [compound 5809354]
viability in the presence of Fas-activating antibody (CH-11): decreases in viability
